Data set [1] in a line: Solubility of neutral fluorinated surfactants in water at 22° C. (capillary GC of saturated solutions). The settings on record: pure deionized water. Type of data set: physicochemical. As to the method: Various neutral fluorinated surfactants were tested to determine their solubility in pure deionized water.
A short description of data set [2]: Surface Tension Test Method (Kruss K12 tensiometer, Wilhelmy plate). Type of data set: physicochemical. How it is done: Surface Tension Test Method
Surface tension was measured using a K12 process tensiometer (available from Kruss GmbH of Hamburg, Germany) using a Wilhemly plate method with a platinum PL01 plate (available from Krüss GmbH). Forty milliliters of the solution to be tested were placed in a 60 mL glass snap cap jar with an inner diameter of approximately 1.5 inches.

[3] abbreviates: aqueous ammonium hydroxide, mole ratio 2.0, same concentrations.
The mark [4] stands for this setting: aqueous TMAH, mole ratio 1.0, equivalent concentrations.
The mark [5] stands for this setting: aqueous TMAH, mole ratio 2.0, same concentrations.

The melting point is the temperature of the solid-liquid transition.

SMILES strings stand for the structures.

As for `O=S(=O)(N(CCOCCO)CCOCCO)C(F)(F)C(F)(F)C(F)(F)C(F)(F)F` [IV, C4F9SO2N(CH2CH2OCH2CH2OH)2], the “% Soluble in water at 22 Deg C.” value in data set [1] came out at 0.101%.
Still for that read-out and setting: for `O=S(=O)(N(CCO)CCO)C(F)(F)C(F)(F)C(F)(F)C(F)(F)F` [B, reference compound] the value was 0.0592%.
For `CC(O)CNS(=O)(=O)C(F)(F)C(F)(F)C(F)(F)C(F)(F)F` (centres unmarked) [I, C4F9SO2N(H)CH2CH(CH3)OH], the melting point came out at 80.33 °C. Also, in data set [2] (setting [3]), the “Surface tension in water compared” value is recorded as “roughly equivalent surface tensions”.
`CN(CCOCCO)S(=O)(=O)C(F)(F)C(F)(F)C(F)(F)C(F)(F)F` [VI, C4F9SO2N(CH3)(CH2CH2OCH2CH2OH)] returned a melting point of 80.5 °C. Also, the “% Soluble in water at 22 Deg C.” value in data set [1] was determined as 0.232%.
The corresponding values for `O=S(=O)(N(CCO)CCOCCO)C(F)(F)C(F)(F)C(F)(F)C(F)(F)F` [V, C4F9SO2N(CH2CH2OCH2CH2OH)(CH2CH2OH)] are 45.1 °C and 100 (miscible)^ %.
As for `O=S(=O)(NCCOCCO)C(F)(F)C(F)(F)C(F)(F)C(F)(F)F` [III, C4F9SO2N(H)CH2CH2OCH2CH2OH], the melting point worked out at 35.7 °C. Moreover, in data set [2] (setting [4]), the “Surface tension in water compared” value is given as “significantly lower surface tensions than H-FBSE”. Moreover, in data set [2] (setting [5]), the “Surface tension in water compared” value is “significantly lower surface tension in water than H-FBSE”. Besides, the “Surface tension in water compared” value in data set [2] (setting [3]) is given as “lower surface tension in water than the H-FBSE”.
As to `O=S(=O)(NCCO)C(F)(F)C(F)(F)C(F)(F)C(F)(F)F` [A, reference compound], the “Surface tension in water compared” value in data set [2] (setting [3]) is on record as “roughly equivalent surface tensions”.
With `CN(CCO)S(=O)(=O)C(F)(F)C(F)(F)C(F)(F)C(F)(F)F` [C, reference compound], the “% Soluble in water at 22 Deg C.” value in data set [1] is given as 0.118%.
As to `O=S(=O)(NCCOCCOCCO)C(F)(F)C(F)(F)C(F)(F)C(F)(F)F` [VIII, C4F9SO2NH(CH2CH2OCH2CH2OCH2CH2OH)], the “Surface tension in water compared” value in data set [2] (setting [4]) is recorded as “significantly lower surface tensions than H-FBSE”; in data set [2] (setting [5]) it was “significantly lower surface tension in water than H-FBSE”; in data set [2] (setting [3]), “lowest surface tension in water of all the materials tested”.

For the origin of these results see patent US9725683B2, “Surfactants and methods of making and using same” (priority 2013, dated 2017).
